Assay results from patent US20220117938A1, “COMBINATON THERAPY WITH A DON PRODRUG AND AN IMMUNE CHECKPOINT INHIBITOR” (DRACEN PHARMACEUTICALS, INC., priority 2019, published 2022).
pIC50: −log10 of the molar value.

System: Ninety four (94) cell lines and PBMC
Experiment: Cell viability assay, SRB staining, 94 cell lines and PBMC (Example 7, Experiment 2)
Assay type: cell-based
Procedure: Ninety four (94) cell lines were seeded at a density varying from 500 to 7000 cells/well depending on their growth characteristics. PBMC were seeded at the density 50,000-100,000 cells/well. Cells were incubated for 48 h prior to compound treatment. Compound 1 and DON were evaluated at a concertation range of 1 nM up to 100 μM. Compound 1 dilutions in DMSO and DON dilutions in PBS were performed in 96-well 0.5 mL plates (Greiner Bio-One, Germany). Compounds were then diluted 1:100 in RPMI medium. […] of cells were treated by mixing with 10 μL of the compound-containing media (resulting in a final DMSO concentration of 0.1%). The cells were allowed to grow at 37° C. for 120 h. Cells were fixed to the surface by addition of 10% TCA (for adherent growing cells) or 50% TCA (for semi-adherent growing cells or cells growing in suspension). After an hour of incubation at 4° C., plates were washed twice with 400 μL of deionized water and dried. Cells were then stained with 100 μL of 0.04% wt/v SRB. The plates were incubated at room temperature for at least 30 min and washed six times with 1% acetic acid to remove unbound stain. The plates were left to dry at room temperature and bound SRB was solubilized with 100 μL of 10 mM Tris base. Optical density was measured at 492, 520 and 560 nm using a Deelux-LED96 plate reader (Deelux Labortechnik GmbH, Germany).
Cell lines were purchased directly from the ATCC, NCI, CLS, and DSMZ cell line collections. A master bank and working aliquots were prepared. Cells used for the study had undergone less than 20 passages. To rule out potential contamination or wrong assignment, all cell lines were tested by STR analysis. Absence of mycoplasma contamination was confirmed for all cell lines used in the studies.
The cell lines were grown in the media recommended by the suppliers in the presence of 100 U/mL penicillin and 100 μg/mL streptomycin supplied with 10% FCS (PAA, Germany). RPMI 1640, DMEM, and MEM Earle's medium were from PAA (Coelbe, Germany), supplements 2 mM L-glutamine, 1 mM Na-pyruvate and 1% NEAA were from PAA (Coelbe, Germany), 2.5% horse serum, hydrocortisone, transferin, beta-estradiol, selenite and 1 U/mL insulin from Sigma-Aldrich (Munich, Germany). RPMI medium was used for culturing the following cell lines: 5637, 22RV1, 7860, A2780, A431, A549, ACHN, ASPC1, BT20, BXPC3, CAKI1, CLS439, COLO205, COLO678, DLD1, DU145, EFO21, EJ28, HCT15, HS578T, IGROV1, JAR, LOVO, MCF7, MDA MB231, MDA MB435, MDA MB436, MDA MB468, MHHES1, MT3, NCI H292, NCI H358M, NCI H460, NCIH82, OVCAR3, OVCAR4, PANC 1005 (addition of insulin), PBMC, PC3, RDES, SF268, SF295, SKBR3, SK MEL28, SKMEL5, SKOV3, SW620, U2OS, UMUC3, and U031.
DMEM medium was used to culture A204, A375, A673, C33A, CASKI, HCT116, HEPG2, HS729, HT29, J82, MG63, MIAPACA2 (addition of horse serum), PANC1, PLCPRF5, RD, SAOS2, SKLMS1, SKNAS, SNB75, T24, and TE671.
MEM Earle's medium was used for CACO2, CALU6, HEK293, HELA, HT1080, IMR90, JEG3, JIMT1, SKHEP1, SKNSH, and U87MG. Cell seeding conditions were optimized for each cell line. The cell seeding density varied from 500 to 7000 cells/well depending on their growth characteristics. Peripheral blood mononuclear cells (PBMC) were freshly isolated from whole blood of an anonymous donor through density gradient centrifugation using Ficoll solution (d=1.077). In short, blood was diluted 1:1 with PBS and carefully placed on the Ficoll. After centrifugation 1000×g for 15 min (braking rate 0), the ring containing mainly leucocytes was collected in PBS followed by three times washing with PBS to reduce the platelets. PBMC were seeded at the density 50,000-100,000 cells/well. Cells were grown in 5% CO2 atmosphere in a NB-203XXL incubator (N-BIOTEK Inc., Korea).
Ninety-four cell lines were tested in parallel. Cell growth and treatment were performed in 96 well microtitre plates CELLSTAR® (Greiner Bio-One, Germany). […]

[1] = Homo sapiens, MDA-MB-468, MDAMB468, breast
[2] = Homo sapiens, MG-63, MG63, bone
[3] = Homo sapiens, MHH-ES-1, MHHES1, bone
[4] = Homo sapiens, MIA PaCa-2, MIAPACA2, pancreas
[5] = Homo sapiens, MINO, hematological
[6] = Homo sapiens, MV4-11, MV4-11, hematological
[7] = Homo sapiens, NCI-H292, NCIH292, lung
[8] = Homo sapiens, NCI-H460, NCIH460, lung
[9] = Homo sapiens, OVCAR-3, OVCAR3, ovary
[10] = Homo sapiens, OVCAR-4, OVCAR4, ovary
[11] = Homo sapiens, PANC-1, PANC1, pancreas
[12] = Homo sapiens, PLC-PRF-5, PLCPRF5, liver
[13] = Homo sapiens, Panc1005, PANC1005, pancreas
[14] = Homo sapiens, SAOS-2, SAOS2, bone
[15] = Homo sapiens, SF-268, SF268, brain
[16] = Homo sapiens, SF-295, SF295, brain
[17] = Homo sapiens, SK-BR-3, SKBR3, breast
[18] = Homo sapiens, SK-HEP1, SKHEP1, liver
[19] = Homo sapiens, SK-LMS-1, SKLMS1, uterus
[20] = Homo sapiens, SK-MEL-5, SKMEL5, skin
[21] = Homo sapiens, SK-MEL-28, SKMEL28, skin
[22] = Homo sapiens, SK-N-SH, SKNSH, brain
[23] = Homo sapiens, SK-OV-3, SKOV3, ovary
[24] = Homo sapiens, SU-DHL-6, SU-DHL-6, hematological
[25] = Homo sapiens, SW-620, SW620, colon
[26] = Homo sapiens, TE-671, TE671, muscle
[27] = Homo sapiens, THP-1, THP-1, hematological
[28] = Homo sapiens, U-87 MG, U87MG, brain
[29] = Homo sapiens, UMUC3, UMUC3, bladder
[30] = Homo sapiens, UO-31, UO31, kidney
[31] = Homo sapiens, WSU-NHL, hematological

[N-]=[N+]=CC(=O)CC[C@H](N)C(=O)O [DON, 6-Diazo-5-oxo-L-norleucine, reference compound] was tested. Which pIC50 (Homo sapiens, MDA-MB-436, MDAMB436, breast) did it give?
Its pIC50 is 4.70.

What about the GI50 [1] of the same molecule?
Its GI50 is 0.427 µM.

And the pIC50 [1]?
Its pIC50 is 6.22.

What about the GI50 [2] of the same molecule?
The GI50 was 4.61 µM.

What about the pIC50 [2] of the same molecule?
The pIC50 was 5.28.

What about the GI50 [3] of the same molecule?
Its GI50 is 1.85 µM.

What about the pIC50 [3] of the same molecule?
The pIC50 was 5.70.

What about the GI50 [4] of the same molecule?
Its GI50 is 3.32 µM.

And the pIC50 [4]?
Its pIC50 is 5.45.

And the GI50 [5]?
Its GI50 is 0.497 µM.

What about the pIC50 [5] of the same molecule?
The pIC50 was 6.20.

And the GI50 [6]?
The GI50 was 1.22 µM.

What about the pIC50 [6] of the same molecule?
The pIC50 was 5.85.

What about the GI50 [7] of the same molecule?
Its GI50 is 5.72 µM.

What about the pIC50 [7] of the same molecule?
Its pIC50 is 4.27.

What about the GI50 [8] of the same molecule?
The GI50 was 4.11 µM.

What about the pIC50 [8] of the same molecule?
Its pIC50 is 5.37.

And the GI50 [9]?
The GI50 was 0.889 µM.

And the pIC50 [9]?
Its pIC50 is 5.64.

And the GI50 [10]?
Its GI50 is 0.651 µM.

And the pIC50 [10]?
Its pIC50 is 6.12.

What about the GI50 [11] of the same molecule?
The GI50 was 12.3 µM.

And the pIC50 [11]?
The pIC50 was 4.88.

What about the GI50 [12] of the same molecule?
The GI50 was 6.53 µM.

What about the pIC50 [12] of the same molecule?
The pIC50 was 5.09.

And the GI50 [13]?
Its GI50 is 4.17 µM.

What about the pIC50 [13] of the same molecule?
The pIC50 was 5.07.

And the GI50 (Homo sapiens, Ramos, hematological)?
The GI50 was 0.672 µM.

What about the GI50 [14] of the same molecule?
The GI50 was 6.36 µM.

And the pIC50 [14]?
Its pIC50 is 4.48.

What about the GI50 [15] of the same molecule?
The GI50 was 6.32 µM.

And the pIC50 [15]?
Its pIC50 is 5.13.

And the GI50 [16]?
Its GI50 is 4.71 µM.

And the pIC50 [16]?
The pIC50 was 5.28.

What about the GI50 [17] of the same molecule?
Its GI50 is 2.14 µM.

And the pIC50 [17]?
Its pIC50 is 5.49.

And the GI50 [18]?
The GI50 was 1.79 µM.

And the pIC50 [18]?
The pIC50 was 5.58.

What about the GI50 [19] of the same molecule?
Its GI50 is 1.66 µM.

And the pIC50 [19]?
The pIC50 was 5.64.

What about the GI50 [20] of the same molecule?
Its GI50 is 2.19 µM.

What about the pIC50 [20] of the same molecule?
The pIC50 was 5.52.

What about the GI50 [21] of the same molecule?
The GI50 was 1.69 µM.

What about the pIC50 [21] of the same molecule?
The pIC50 was 5.66.

And the GI50 (Homo sapiens, SK-N-AS, SKNAS, brain)?
The GI50 was 12.6 µM.

What about the GI50 [22] of the same molecule?
The GI50 was 5.04 µM.

And the pIC50 [22]?
The pIC50 was 5.15.

What about the GI50 [23] of the same molecule?
Its GI50 is 0.769 µM.

What about the pIC50 [23] of the same molecule?
Its pIC50 is 5.92.

What about the GI50 (Homo sapiens, SNB-75, SNB75, brain) of the same molecule?
Its GI50 is 15.5 µM.

And the GI50 (Homo sapiens, SU-DHL10, SU-DHL-10, hematological)?
The GI50 was 8.42 µM.

What about the GI50 [24] of the same molecule?
Its GI50 is 0.623 µM.

And the pIC50 [24]?
Its pIC50 is 6.12.

And the GI50 [25]?
Its GI50 is 5.38 µM.

What about the pIC50 [25] of the same molecule?
The pIC50 was 5.20.

What about the GI50 [26] of the same molecule?
Its GI50 is 4.63 µM.

And the pIC50 [26]?
The pIC50 was 5.29.

And the GI50 [27]?
Its GI50 is 1.02 µM.

What about the pIC50 [27] of the same molecule?
The pIC50 was 5.96.

What about the GI50 (Homo sapiens, U2OS, bone) of the same molecule?
Its GI50 is 5.91 µM.

What about the pIC50 (Homo sapiens, U2OS, bone) of the same molecule?
Its pIC50 is 5.08.

And the GI50 [28]?
Its GI50 is 10.5 µM.

And the pIC50 [28]?
Its pIC50 is 4.95.

And the GI50 [29]?
The GI50 was 2.23 µM.

And the pIC50 [29]?
Its pIC50 is 5.56.

What about the GI50 [30] of the same molecule?
The GI50 was 0.981 µM.

And the pIC50 [30]?
Its pIC50 is 4.73.

What about the GI50 [31] of the same molecule?
Its GI50 is 0.796 µM.

What about the pIC50 [31] of the same molecule?
Its pIC50 is 6.19.

And the pIC50 (J82, bladder)?
Its pIC50 is 4.54.

And the pIC50 (JAR, placenta)?
The pIC50 was 5.52.

And the pIC50 (MT3, breast)?
The pIC50 was 6.10.

And the GI50 (NCI-H358M, NCIH358M, lung)?
The GI50 was 1.61 µM.

What about the pIC50 (NCI-H358M, NCIH358M, lung) of the same molecule?
The pIC50 was 5.30.

And the GI50 (PBMC, 5637, bladder)?
The GI50 was 0.796 µM.

And the GI50 (PBMC, CLS439, bladder)?
Its GI50 is 6.87 µM.

What about the GI50 (PBMC, HS729, muscle) of the same molecule?
Its GI50 is 7.42 µM.

And the GI50 (PBMC, J82, bladder)?
The GI50 was 23.2 µM.

And the GI50 (PBMC, JAR, placenta)?
Its GI50 is 2.81 µM.

And the GI50 (PBMC, MT3, breast)?
The GI50 was 0.638 µM.

What about the GI50 (PBMC, PC3, prostate) of the same molecule?
The GI50 was 8.37 µM.

What about the GI50 (PBMC, RD, muscle) of the same molecule?
The GI50 was 6.79 µM.

What about the GI50 (PBMC, T24, bladder) of the same molecule?
The GI50 was 3.86 µM.

And the pIC50 (PC3, prostate)?
Its pIC50 is 4.93.

And the pIC50 (RD, muscle)?
Its pIC50 is 5.04.

What about the GI50 (RD-ES, RDES, bone) of the same molecule?
The GI50 was 1.96 µM.

What about the pIC50 (RD-ES, RDES, bone) of the same molecule?
The pIC50 was 5.50.

And the pIC50 (T24, bladder)?
Its pIC50 is 5.40.
